# Source: patent US9776987B2, “Amide derivatives for GPR119 agonist” (CHONG KUN DANG PHARMACEUTICAL CORP., priority 2013, dated 2017)
# Biological target: T1, human GPR119 receptor (Homo sapiens, UniProt Q8TDV5)
# T1 construct: host or cells: GeneBLAzer T-Rex GPR 119 CHO-K1 DA cells (CHO-K1)
# T1 sequence (Q8TDV5 1-335): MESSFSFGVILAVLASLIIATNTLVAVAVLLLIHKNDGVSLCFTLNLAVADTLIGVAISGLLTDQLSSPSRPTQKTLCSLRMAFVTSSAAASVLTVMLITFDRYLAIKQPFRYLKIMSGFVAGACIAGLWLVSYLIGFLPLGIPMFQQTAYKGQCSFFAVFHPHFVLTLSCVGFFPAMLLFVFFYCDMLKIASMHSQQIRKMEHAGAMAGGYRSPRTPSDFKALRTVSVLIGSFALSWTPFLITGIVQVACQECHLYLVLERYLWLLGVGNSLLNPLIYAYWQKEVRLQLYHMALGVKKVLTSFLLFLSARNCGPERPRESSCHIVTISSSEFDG
# Assay: Activity test for human GPR119 receptor (GeneBLAzer T-Rex GPR 119 CHO-K1 DA cells)
# Assay type: cell-based
# Conditions: for EC50: human GPR119 receptor expressing CHO-K1 cells, 5 hours treatment, read-out: hGPR119 EC50; for activity for human GPR119 receptor (in words): judgement on the EC50 values of Table 11
# Description: 1. Human GPR119 Receptor Cell
# As a human GPR119 receptor expression cell for this test, the cell line “GeneBLAzer™ T-Rex GPR 119 CHO-K1 DA cells” that is commercially available from Invitrogen, was used. The cell was incubated in the DMEM media containing 1% dialyzed fetal bovine serum etc. The cell incubator was kept at constant temperature and constant humidity of 37° C., 5% CO2.
# 2. Activity Test for Human GPR119 Receptor
# The human GPR119 receptor expressing cell was used to this test. Each of test compounds was added to be final concentrations of 0.1, 1, 10 μM in 96 well and tested in duplicate. A fixed amount of cell was added to each well of 96 well separately, and then treated with the test compound for 5 hours. After treatment of color development agent for 2 hours, the fluorescence value was determined with plate reader. To the luminous wavelength of control well, which was not treated with the sample, but in which only a vehicle […] was contained, the ratio of the luminous wavelength of test well, which was treated with the sample, was calculated, and then converted to obtain EC50 value.
# 3. Statistical Processing
# All the results were expressed as mean±SD, and each test groups and the control group were compared using student's t-test to adjudge the effects of each test groups.
EC50,activity for human GPR119 receptor (in words),Structure (SMILES)
50 nM,–,"C[C@@]1(C(N)=O)C[C@@H](O)CN1C(=O)c1ccc(-c2ccc(OCC3CCN(CC4(C(F)(F)F)CCC4)CC3)nc2)cc1F [Compound 1326, (2S,4R)-1-(2-fluoro-4-(6-((1-((1-(trifluoromethyl)cyclobutyl)methyl)piperidin-4-yl)methoxy)pyridin-3-yl)benzoyl)-4-hydroxy-2-methylpyrrolidin-2-carboxamide]"
24 nM,–,"CC(C)(F)CN1CCC(COc2ccc(-c3ccc(C(=O)N4C[C@H](O)C[C@@]4(C)C(N)=O)c(F)c3)cc2C#N)CC1 [Compound 1276, (2S,4R)-1-(3′-cyano-3-fluoro-4′-((1-(2-fluoro-2-methylpropyl)piperidin-4-yl)methoxy)biphenylcarbonyl)-4-hydroxy-2-methylpyrrolidin-2-carboxamide]"
0.09 nM,excellent activity,"CC(C)(CN1CCC(COc2ccc(-c3ccc(C(=O)N4CCC[C@@]4(C)C(N)=O)c(F)c3)nc2)CC1)C(F)(F)F [Compound 1269, (S)-1-(2-fluoro-4-(5-((1-(3,3,3-trifluoro-2,2-dimethylpropyl)piperidin-4-yl)methoxy)pyridin-2-yl)benzoyl)-2-methylpyrrolidin-2-carboxamide]"
5 nM,–,"CC(C)(F)CN1CCC(COc2ccc(-c3ccc(C(=O)N4CCC[C@@]4(C)C(N)=O)c(F)c3)cc2C#N)CC1 [Compound 1259, (S)-1-(3′-cyano-3-fluoro-4′-((1-(2-fluoro-2-methylpropyl)piperidin-4-yl)methoxy)biphenylcarbonyl)-2-methylpyrrolidin-2-carboxamide]"
9 nM,–,"CC(C)(F)CN1CCC(COc2cnc(-c3ccc(C(=O)N4CCC[C@@]4(C)C(N)=O)c(F)c3)nc2)CC1 [Compound 1206, (S)-1-(2-fluoro-4-(5-((1-(2-fluoro-2-methylpropyl)piperidin-4-yl)methoxy)pyrimidin-2-yl)benzoyl)-2-methylpyrrolidin-2-carboxamide]"
1 nM,–,"CCC(F)(CC)CN1CCC(COc2ccc(-c3ccc(C(=O)N4CC[C@H](O)[C@H]4C(N)=O)cc3)c(F)c2)CC1 [Compound 1245, (2S,3S)-1-(4′-((1-(2-ethyl-2-fluorobutyl)piperidin-4-yl)methoxy)-2′-fluorobiphenylcarbonyl)-3-hydroxypyrrolidin-2-carboxamide]"
53 nM,–,"CCC(F)(CC)CN1CCC(COc2ccc(-c3ccc(C(=O)N4C[C@H](O)C[C@@H]4C(N)=O)cc3F)cc2)CC1 [Compound 1321, (2R,4R)-1-(4′-((1-(2-ethyl-2-fluorobutyl)piperidin-4-yl)methoxy)-2-fluorobiphenylcarbonyl)-4-hydroxypyrrolidin-2-carboxamide]"
2 nM,excellent activity,NC(=O)[C@@H]1C[C@@H](O)CN1C(=O)c1ccc(-c2ccc(OCC3CCN(CC4(C(F)(F)F)CCC4)CC3)cc2)c(F)c1 [Compound 1255]
0.2 nM,–,"CCC(F)(CC)CN1CCC(COc2ccc(-c3ccc(C(=O)N4C[C@@H](F)C[C@H]4C(N)=O)cc3F)cc2)CC1 [Compound 1210, (2S,4S)-1-(4′-((1-(2-ethyl-2-fluorobutyl)piperidin-4-yl)methoxy)-2-fluorobiphenylcarbonyl)-4-fluoropyrrolidin-2-carboxamide]"
1 nM,–,"C[C@@]1(C(N)=O)C[C@@H](O)CN1C(=O)c1ccc(-c2ccc(OCC3CCN(CC4(C(F)(F)F)CCC4)CC3)cc2)c(F)c1 [Compound 1258, (2S,4R)-1-(2-fluoro-4′-((1-((1-(trifluoromethyl)cyclobutyl)methyl)piperidin-4-yl)methoxy)biphenylcarbonyl)-4-hydroxy-2-methylpyrrolidin-2-carboxamide]"
38 nM,excellent activity,"NC(=O)[C@@H]1C[C@@H](O)CN1C(=O)c1ccc(-c2ccc(OCC3CCN(CC4(C(F)(F)F)CCC4)CC3)cn2)cc1F [Compound 1280, (2S,4R)-1-(2-fluoro-4-(5-((1-((1-(trifluoromethyl)cyclobutyl)methyl)piperidin-4-yl)methoxy)pyridin-2-yl)benzoyl)-4-hydroxypyrrolidin-2-carboxamide]"
20 nM,–,"CCC(F)(CC)CN1CCC(COc2ccc(-c3ccc(C(=O)N4C[C@H](O)C[C@H]4C(N)=O)cc3F)nc2)CC1 [Compound 1287, (2S,4R)-1-(4-(5-((1-(2-ethyl-2-fluorobutyl)piperidin-4-yl)methoxy)pyridin-2-yl)-3-fluorobenzoyl)-4-hydroxypyrrolidin-2-carboxamide]"
10 nM,–,"CCC(F)(CC)CN1CCC(COc2cnc(-c3ccc(C(=O)N4C[C@H](O)C[C@H]4C(N)=O)c(F)c3)nc2)CC1 [Compound 1257, (2S,4R)-1-(4-(5-((1-(2-ethyl-2-fluorobutyl)piperidin-4-yl)methoxy)pyrimidin-2-yl)-2-fluorobenzoyl)-4-hydroxypyrrolidin-2-carboxamide]"
9 nM,excellent activity,"CCC(F)(CC)CN1CCC(COc2ccc(-c3ccc(C(=O)N4CCC[C@@]4(C)C(N)=O)c(F)c3)nc2)CC1 [Compound 1299, (S)-1-(4-(5-((1-(2-ethyl-2-fluorobutyl)piperidin-4-yl)methoxy)pyridin-2-yl)-2-fluorobenzoyl)-2-methylpyrrolidin-2-carboxamide]"
0.05 nM,excellent activity,"NC(=O)[C@@H]1C[C@@H](O)CN1C(=O)c1ccc(-c2ccc(OCC3CCN(CC(F)(F)C(F)(F)F)CC3)cn2)cc1F [Compound 1265, (2S,4R)-1-(2-fluoro-4-(5-((1-(2,2,3,3,3-pentafluoropropyl)piperidin-4-yl)methoxy)pyridin-2-yl)benzoyl)-4-hydroxypyrrolidin-2-carboxamide]"
60 nM,–,"NC(=O)[C@@H]1C[C@@H](O)CN1C(=O)c1ccc(-c2ccc(OCC3CCN(CC4(C(F)(F)F)CCC4)CC3)nc2)cc1F [Compound 1317, (2S,4R)-1-(2-fluoro-4-(6-((1-((1-(trifluoromethyl)cyclobutyl)methyl)piperidin-4-yl)methoxy)pyridin-3-yl)benzoyl)-4-hydroxypyrrolidin-2-carboxamide]"
18 nM,excellent activity,"CC(C)(CN1CCC(COc2ccc(-c3ccc(C(=O)N4C[C@H](O)C[C@@]4(C)C(N)=O)c(F)c3)cn2)CC1)C(F)(F)F [Compound 1295, (2S,4R)-1-(2-fluoro-4-(6-((1-(3,3,3-trifluoro-2,2-dimethylpropyl)piperidin-4-yl)methoxy)pyridin-3-yl)benzoyl)-4-hydroxy-2-methylpyrrolidin-2-carboxamide]"
0.8 nM,excellent activity,"NC(=O)C1CC(O)CCN1C(=O)c1ccc(-c2cnc(OCC3CCN(CC4(C(F)(F)F)CCC4)CC3)cn2)cc1F (stereo not drawn) [Compound 1262, 1-(2-fluoro-4-(5-((1-((1-(trifluoromethyl)cyclobutyl)methyl)piperidin-4-yl)methoxy)pyrazin-2-yl)benzoyl)-4-hydroxypiperidin-2-carboxamide]"
4 nM,excellent activity,"C[C@@]1(C(N)=O)CCCN1C(=O)c1ccc(-c2ccc(OCC3CCN(CC4(C(F)(F)F)CCC4)CC3)cn2)cc1F [Compound 1297, (S)-1-(2-fluoro-4-(5-((1-((1-(trifluoromethyl)cyclobutyl)methyl)piperidin-4-yl)methoxy)pyridin-2-yl)benzoyl)-2-methylpyrrolidin-2-carboxamide]"
0.8 nM,excellent activity,"NC(=O)[C@@H]1C[C@@H](O)CN1C(=O)c1ccc(-c2cnc(OCC3CCN(CC4(C(F)(F)F)CCC4)CC3)cn2)cc1F [Compound 1200, (2S,4R)-1-(2-fluoro-4-(5-((1-((1-(trifluoromethyl)cyclobutyl)methyl)piperidin-4-yl)methoxy)pyrazin-2-yl)benzoyl)-4-hydroxypyrrolidin-2-carboxamide]"
0.2 nM,excellent activity,"NC(=O)[C@@H]1[C@@H](O)CCN1C(=O)c1ccc(-c2cnc(OCC3CCN(CC4(C(F)(F)F)CCC4)CC3)cn2)c(F)c1 [Compound 1253, (2S,3S)-1-(3-fluoro-4-(5-((1-((1-(trifluoromethyl)cyclobutyl)methyl)piperidin-4-yl)methoxy)pyrazin-2-yl)benzoyl)-3-hydroxypyrrolidin-2-carboxamide]"
0.04 nM,excellent activity,"C[C@@]1(C(N)=O)CCCN1C(=O)c1ccc(-c2cnc(OCC3CCN(CC4(C(F)(F)F)CCC4)CC3)cn2)cc1F [Compound 1263, (S)-1-(2-fluoro-4-(5-((1-((1-(trifluoromethyl)cyclobutyl)methyl)piperidin-4-yl)methoxy)pyrazin-2-yl)benzoyl)-2-methylpyrrolidin-2-carboxamide]"
